Measured values as given in patent EP3932395A1, “STABLE EMULSION CONTAINING AN ACTIVE PHARMACEUTICAL INGREDIENT BASED ON N(3-METHYL-2-OXO-2,3-DIHYDROBENZO[D]OXAZOL-5-YL)DODECANAMIDE, PRODUCTION AND USE” (Dr. August Wolff GmbH & Co. KG Arzneimittel, priority 2020, dated 2022).

Legend:
[1] = Solubility screening with standard cream-base excipients; assay type: physicochemical; details: Ph.Eur. terms, 15°C to 25°C
Method: A solubility screening with standard excipients for preparation of a cream base (glycerol monostearate 60, cetyl alcohol, MCTs, paraffin, macrogol-20-glycerol monostearate, propylene glycol and water) was performed.
The following procedure was used to prepare the samples for solubility screen: • 1. Weigh out the API • 2. Add individual excipient (both solid and liquid excipients) • 3. Slurry either by roller at RT if liquid excipient, or by shaker at 60°C if the excipient was solid • 4. Shake or sonicate occasionally • 5. Check solubility visually, if API not dissolved, add more excipient • 6. Repeat steps 3 to 5 • 7. Samples prepared in steps 1 through 6 were centrifuged and removed from the top for HPLC. • 8. Dilute each sample to 1 mL. Only samples fully dissolved were checked by HPLC.
In the general notice of Ph.Eur. in statements of solubility the terms used have the following significance, referred to at a temperature between 15°C and 25°C.

[2] = Simultaneous Thermal Analysis (STA = TGA + DTA); assay type: physicochemical; details: heated 10°C/min from 30°C to 300°C, nitrogen purge
Method: Simultaneous Thermal analysis (STA = TGA (Thermogravimetric Analysis) + DTA (Differential Thermal Analysis)) was performed in order to test the stability of N-(3 -methyl-2-oxo-2,3-dihydrobenzo[d]oxazol-5-yl)dodecanamide (hereinafter "the API") while heating. Approximately 10 mg of the sample was weighed into a ceramic crucible and placed into the chamber of a Perkin-Elmer STA 600 TGA/DTA analyzer at ambient temperature. The sample was then heated at a rate of 10°C/min from 30°C up to 300°C during which time the change in weight was monitored as well as DTA signal. The purge gas used was nitrogen at a flow rate of 20 cm^3/min.

[3] = Particle size distribution of the API by laser diffraction, pre and post jet-mill micronization; assay type: physicochemical
Excerpt: A Sturtevant qualification micronizer was used to reduce the particle size of the API. The mill was operated with tangential flow (i.e. the nitrogen supply and drug are fed in the same direction in the milling chamber). The material of API as received was fed into the jet mill using a Venturi feed system, where air was used to draw the feed material into the milling chamber. A product filter bag was affixed to the outlet of the mill, through which the exhausts and the milled drug substance collects. The milling conditions were set as follows: Grind gas: Dry nitrogen gas; Grind pressure: 80 psi; Feed pressure: 80 psi; Room conditions: Ambient.
A representative sample, dispersed at an adequate concentration in a suitable liquid, is passed through the beam of a monochromatic light source, preferably from a laser. The light scattered by the particles at various angles is measured by a multi-element detector, and numerical values relating to the scattering pattern are then recorded for subsequent analysis. These numerical scattering values are then transformed, using an appropriate optical model and mathematical procedure, to yield the proportion of total volume to a discrete number of size classes forming a volumetric particle size distribution (e.g., dso describes a particle diameter corresponding to 50% of the cumulative undersize distribution, i.e. 50% of the particles have a diameter that is smaller than a threshold value).
The Particle Size Distribution was determined using Malvern Mastersizer MicroPlus particle size analyzer (Malvern Instruments, UK) and 1% (v/v) Tween 80 in deionized water was used as dispersant for this experiment. The equipment was turned on and the following conditions were set: Analysis Model: Polydisperse; Presentation Code: Frauenhofer (5$$D); Stirring speed: 10 o'clock dial position.
The equipment was left to warm up for about 1 hour and approximately 100 mL of the dispersant was added to the sample dispersion unit. Backgrounds were first measured using the dispersant. A fresh sample was prepared by adding -20 to 50 mg API into ∼2 to 3 mL of the dispersant and this was sonicated for ∼5 minutes. The sample was added dropwise into the sample dispersion unit while stirring the dispersant until a suitable obscuration value was achieved and the particle size distribution could be measured. A minimum of three measurements were made for the pre and post micronized samples.
Alternatively, the Malvern Mastersizer 2000 can be used for the determination of Particle Size Distribution. In this case water is used as dispersant.
For upscaling purposes, the micronization process was transferred to a jet mill AS200 (Hosokawa Alpine, Germany) on which the following experiments were performed. Dry nitrogen and air were used as grind gas in order to determine the gas which is more suitable for the micronization process.

[4] = Forced degradation studies; assay type: physicochemical
Excerpt: Solid samples and sample solutions of N-(3-methyl-2-oxo-2,3-dihydrobenzo[d]oxazol-5-yl)dodecanamide were exposed to stress agents for a defined period and influence of stress on the compound were studied (i.e. the degradation).
The evaluation was expressed as relative percent with respect to t=0 result of unstressed sample (mass balance, % of peak areas).
The stress conditions were adjusted in such way that the degradation varied in a range of approx. 1 to 5% generated impurities.
The following stress conditions were applied: acidic and basic hydrolysis, oxidizing agent, temperature and photolytic conditions.
Solid sample - daylight, laboratory condition (VIS) - exposure time 7 days Solid sample - UV 254 nm, laboratory condition (UV) - exposure time 6 days
Solid sample, 70°C - exposure time 6 days
Sample solution, 3% H2O2, laboratory condition - exposure time 24 h
Sample solution, 0.1M HCI, 50°C - exposure time 24 h
Sample solution, 0.01-0.05M NaOH, 25°C (1M NaOH, 50°C, 1 h) - exposure time 45 min

[5] = system: Human lymphoma U937 cells; assay: Cellular uptake of [3H]-AEA; assay type: cell-based; details: U-937, 100 nM AEA, 15 min pre-incubation, 15 min at 37°C
Method: Human lymphoma U937 cells were grown in RPMI 1640 medium (Invitrogen, Basel, Switzerland) supplemented with 10% fetal bovine serum, […] fungizone (amphotericin B), 100 units/mL penicillin, 100 µg/mL streptomycin, and 2 mM L-glutamine (all from Invitrogen) and selected for the cellular AEA uptake assay. 2.5 x 10^6 cells were collected and suspended in 250 µL of RPMI 1640 medium (Invitrogen, Basel, Switzerland) at 37°C using glass silanized vials. Cells were pre-incubated 15 min at 37°C in presence of the test compound in a concentration range of 10^-11 - 10^-5 M or in presence of the same amount (5 µL) of vehicle control (DMSO). Then a mixture of 0.5 nM [^3H]-AEA (60 Ci/mmol) (American Radiolabeled Chemicals, Inc., San Louis, MO, US) and 99.5 nM of nonradioactive AEA (Tocris Cookson Ltd., Bristol, UK) resulting in a final concentration of 100 nM AEA was added and samples were incubated at 37°C for another 15 minutes. The reaction was stopped by rapid filtration over UniFilter®-96 GF/C (Perkin Elmer, Boston MA, US) pre-soaked with PBS 0.25% BSA (w/v). […] Radioactivity was measured using a Perkin Elmer 1450 Microbeta TRILUX liquid scintillation counter. Results were expressed as % of AEA uptake versus cells treated with solvent and the EC50 and IC50 values were calculated from the sigmoidal curves, which were generated using the GraphPad Prism 5.0 (GraphPad Software, San Diego, CA, US).

[6] = Forced degradation studies; assay type: physicochemical; details: 0.05M NaOH, 5 min, room temperature
[7] = first batch (5 g), post micronization, mean ± SD
[8] = first batch (5 g), pre micronization, mean ± SD
[9] = second batch (200 g), post micronization, mean ± SD
[10] = second batch (200 g), pre micronization, mean ± SD

CCCCCCCCCCCC(=O)Nc1ccc2oc(=O)n(C)c2c1 [API, N-(3-methyl-2-oxo-2,3-dihydrobenzo[d]oxazol-5-yl)dodecanamide]
solubility ([1]; in MCTs): Very slightly soluble (from 1,000 to 10,000) | solubility ([1]; in propylene glycol): Very slightly soluble (from 1,000 to 10,000) | solubility ([1]; in water): Practically insoluble (more than 10,000) | temperature up to which the material remained stable [2]: ~190 °C | d90 ([3]; 150 g batch, jet mill AS200, normal air as grind gas, post micronization): 7.43 µm | d90 ([3]; 200 g batch, jet mill AS200, dry nitrogen as grind gas, post micronization): 8.92 µm | d10 [3, 7]: 1.11±0.05 µm | d50 [3, 7]: 2.97±0.05 µm | d90 [3, 7]: 6.76±0.36 µm | d10 [3, 8]: 7.53±1.55 µm | d50 [3, 8]: 33.71±18.61 µm | d90 [3, 8]: 106.06±56.69 µm | d90 ([3]; jet mill AS200, batch size 0.913 kg): 4.8 µm | d90 ([3]; jet mill AS200, batch size 1.035 kg): 5.5 µm | d90 ([3]; jet mill AS200, batch size 1.073 kg): 4.4 µm | d90 ([3]; jet mill AS200, batch size 3.60 kg): 7.6 µm | d10 [3, 9]: 1.96±0.11 µm | d50 [3, 9]: 4.98±0.10 µm | d90 [3, 9]: 10.29±0.44 µm | d10 [3, 10]: 26.90±3.65 µm | d50 [3, 10]: 69.71±9.95 µm | d90 [3, 10]: 127.67±18.59 µm | degradation under basic hydrolysis ([4]; 1M NaOH, 50°C, after 1 hour): completely degraded | time for which the stressed sample was stable ([4]; 3% H2O2 solution): at least 24 hours | stability conclusion ([4]; acidic condition): stable | stability conclusion ([4]; alkaline conditions): not stable | stability conclusion ([4]; oxidizing condition (H2O2)): stable | stability conclusion ([4]; photolytic conditions (VIS, UV)): photo stable | mass balance ([4]; sample solution, 0.1M HCl, 50°C, 24 h): 101.2% | mass balance ([4]; sample solution, 3% H2O2, 24 h): 98% | mass balance ([4]; solid sample, 70°C, 6 days): 102.6% | mass balance ([4]; solid sample, UV 254 nm, 6 days, relative to t=0 unstressed sample): 102.4% | mass balance ([4]; solid sample, daylight (VIS), 7 days, relative to t=0 unstressed sample): 100.2% | stability conclusion ([4]; temperature conditions (70°C)): thermo stable | EC50 [5]: 4 nM | purity of the measured sample after basic hydrolysis [6]: 89.50 % A
